In brackets after ≈: the same amount, converted by molar mass. Where two headings read alike, the source gives them in different places.
Legend:
S. aureus ARC516 = test: MIC (CLSI broth microdilution); type: cell-based
[1] = system: S. aureus AP607004 (MRQR); test: MIC (CLSI broth microdilution); type: cell-based
[2] = system: S. pneumoniae ARC2205 (ERQR); test: MIC (CLSI broth microdilution); type: cell-based
N. gonorrhoeae ATCC49226 = test: MIC (CLSI agar dilution); type: cell-based
mouse lymphoma cells = test: in vitro mouse micronucleus aberration assay (MMA); type: cell-based; details: in vitro
Experimental: In vitro toxicology. Experiments for assessing micronuclei in mouse lymphoma cells^19 myeloid cytotoxicity^20 and erythroid cytotoxicity^21 were performed as described previously.

[3] = hepatocyte intrinsic clearance; type: in vitro ADME; details: female, CD-1, mouse hepatocytes
Description: Supplement srep11827-s1.doc, table 4 | column: CD-1 mouse (female)

[4] = Single dose pharmacokinetics, mouse; type: in vivo, CD-1 mouse
Experimental: AZD0914 was analyzed in mouse, rat, dog, monkey plasma using a qualified method which was later validated for human plasma analysis. The validated human method is described below and is representative of the approach taken in other species. AZD0914 was determined in human plasma prepared with K2EDTA as an anticoagulant. AZD0914 and an internal standard (^13C2, ^15N2 AZD0914) were extracted from plasma with tert- butyl methyl ether. After evaporating to dryness under a stream of nitrogen, the residue was reconstituted and quantitated by reverse phase HPLC-MS/MS against a standard curve from 1.00 to 5000 ng/ml. Separation was achieved using a gradient which went from 55% to 85% methanol:acetonitrile (1:1) containing 0.2% formic acid as mobile phase B and 0.2% formic acid in water as mobile phase A at a flow rate of 0.60 ml/min through a Phenomonex Gemini C18 column (50 x 2.0 mm column, […]) heated using a Shimadzu CTO-20AC set to 40 °C. AZD0914 was detected in multiple reaction monitoring (MRM) mode by positive ion electrospray ionization using a Sciex API5500 (Toronto, Canada) mass spectrometer. The ion spray voltage was set to 5500 V and turboionspray temperature was 650 °C. AZD0914 was quantitated using the MRM transition 488.2 → 348.2 using a collision energy of 29 eV. The internal standard, (^13C2, ^15N2 AZD0914), was monitored using identical conditions except for the MRM transition of 492.2 → 348.2.

[5] = plasma protein binding, dog; type: in vitro ADME; details: in vitro at 1-50 µM
Description: Supplement srep11827-s1.doc, table 4 | column: Beagle dog (male)

[6] = 28 day oral toxicology study, rat; type: in vivo, Han Wistar rat; details: for NOAEL at 28 days: in vivo
Experimental: The following dosing formulation for rat and dog 28 day PO studies was used: a 100 mg/mL stock of ETX0914 in 5% dextrose and 2.5M meglumine adjusted to pH 9 using 5M HCl or 2.5M meglumine. The dosing formulations were diluted as required with phosphate buffered saline and dispensed daily. […] A control group of 10 male and 10 females were given the vehicle only. An additional 3 animals per sex were allocated to each group for toxicokinetics wherein blood samples (1 mL) from the tail vein pre-trial and on Day 27 were collected. […] Animals were terminated by exposure to CO2. The following were assessed: clinical observations, body weight, food consumption, body temperature, hematology, plasma chemistry, toxicokinetics and gross and microscopic pathology.

S. aureus DNA gyrase = S. aureus DNA gyrase (Staphylococcus aureus, UniProt P0A0K8+P20831); details: free Mg2+ 0.06 μM to 8 mM
Chain of S. aureus DNA gyrase (P0A0K8 whole entry): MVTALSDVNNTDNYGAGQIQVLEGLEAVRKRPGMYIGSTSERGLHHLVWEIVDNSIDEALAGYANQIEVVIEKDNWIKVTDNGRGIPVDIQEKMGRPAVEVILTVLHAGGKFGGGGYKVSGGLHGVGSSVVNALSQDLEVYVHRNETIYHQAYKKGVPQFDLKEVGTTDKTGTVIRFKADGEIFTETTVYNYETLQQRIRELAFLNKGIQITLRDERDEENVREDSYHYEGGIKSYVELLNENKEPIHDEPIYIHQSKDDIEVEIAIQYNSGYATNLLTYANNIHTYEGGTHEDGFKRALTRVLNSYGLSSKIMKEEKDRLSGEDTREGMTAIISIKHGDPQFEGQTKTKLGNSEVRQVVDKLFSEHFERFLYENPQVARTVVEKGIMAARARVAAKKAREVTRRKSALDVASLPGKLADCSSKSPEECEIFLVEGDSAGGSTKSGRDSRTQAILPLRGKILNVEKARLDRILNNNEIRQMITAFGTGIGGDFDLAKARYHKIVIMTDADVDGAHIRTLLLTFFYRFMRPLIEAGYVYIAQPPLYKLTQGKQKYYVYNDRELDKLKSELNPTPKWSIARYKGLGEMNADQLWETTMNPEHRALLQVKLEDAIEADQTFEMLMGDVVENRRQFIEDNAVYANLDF
Chain of S. aureus DNA gyrase (P20831 whole entry): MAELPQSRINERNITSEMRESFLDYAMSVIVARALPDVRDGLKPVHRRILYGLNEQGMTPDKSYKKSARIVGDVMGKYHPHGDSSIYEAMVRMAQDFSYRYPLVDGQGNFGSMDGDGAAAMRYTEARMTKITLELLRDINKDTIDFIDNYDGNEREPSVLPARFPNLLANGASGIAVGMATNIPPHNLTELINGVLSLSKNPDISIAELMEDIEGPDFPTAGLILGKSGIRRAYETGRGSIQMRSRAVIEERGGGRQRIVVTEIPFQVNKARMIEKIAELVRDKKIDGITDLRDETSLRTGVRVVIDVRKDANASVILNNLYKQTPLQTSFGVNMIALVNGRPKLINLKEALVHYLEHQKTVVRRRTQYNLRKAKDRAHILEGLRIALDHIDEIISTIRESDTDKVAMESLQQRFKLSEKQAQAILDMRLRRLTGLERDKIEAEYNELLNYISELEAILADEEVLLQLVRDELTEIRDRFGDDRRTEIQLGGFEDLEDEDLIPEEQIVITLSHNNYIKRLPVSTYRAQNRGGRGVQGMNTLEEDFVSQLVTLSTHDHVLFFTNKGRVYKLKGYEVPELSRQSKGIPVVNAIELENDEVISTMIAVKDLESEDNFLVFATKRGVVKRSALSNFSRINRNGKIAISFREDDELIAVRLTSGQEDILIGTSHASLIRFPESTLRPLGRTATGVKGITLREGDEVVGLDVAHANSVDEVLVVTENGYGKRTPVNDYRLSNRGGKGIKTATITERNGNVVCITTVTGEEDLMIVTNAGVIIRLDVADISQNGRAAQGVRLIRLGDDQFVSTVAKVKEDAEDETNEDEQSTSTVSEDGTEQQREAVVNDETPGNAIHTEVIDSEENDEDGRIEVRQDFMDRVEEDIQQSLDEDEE
Experimental: Reactions were quenched by adding 3 μl of 2% SDS and 1 mg/ml proteinase K (30 min at 37 °C). DNA loading dye (4 μl) was added and DNA products were quantified by gel electrophoresis. Samples (25 μl) were loaded into wells of 1% agarose gels buffered with 40 mM Tris, 20 mM acetic acid, and 1 mM EDTA at pH 8.4 and run for 18 to 20 hours at 30V, or 3 hours at 60V including 1 µg/ml ethidium bromide in gel running buffer. DNA bands from gel electrophoresis were visualized by staining with ethidium bromide (5 µg/ml in TAE) after electrophoresis. DNA was quantified from digital images acquired during UV transillumination using AlphaEase software (Genetic Technologies). Background from control wells without inhibitor was subtracted.

Staphylococcus aureus = details: cited from earlier work
Neisseria gonorrhoeae = details: cited from earlier work
Streptococcus pyogenes = system: Streptococcus pyogenes; design: method as in ref 2 (supplement); details: 1358 tested; ref 2 (supplement); cited from earlier work
Streptococcus pneumoniae = system: Streptococcus pneumoniae; design: method as in ref 2 (supplement); details: 2324 tested; ref 2 (supplement); cited from earlier work
Moraxella catarrhalis = system: Moraxella catarrhalis; design: method as in ref 2 (supplement); details: 145 tested; ref 2 (supplement); cited from earlier work
Chlamydia trachomatis = system: Chlamydia trachomatis; design: method as in ref 3 (supplement); details: 10 tested; ref 3 (supplement); cited from earlier work
S. aureus = details: 4X MIC, various strains; cited from earlier work
hERG = hERG (Homo sapiens, UniProt Q12809); test: In vitro ion channel function
Chain of hERG (Q12809 whole entry): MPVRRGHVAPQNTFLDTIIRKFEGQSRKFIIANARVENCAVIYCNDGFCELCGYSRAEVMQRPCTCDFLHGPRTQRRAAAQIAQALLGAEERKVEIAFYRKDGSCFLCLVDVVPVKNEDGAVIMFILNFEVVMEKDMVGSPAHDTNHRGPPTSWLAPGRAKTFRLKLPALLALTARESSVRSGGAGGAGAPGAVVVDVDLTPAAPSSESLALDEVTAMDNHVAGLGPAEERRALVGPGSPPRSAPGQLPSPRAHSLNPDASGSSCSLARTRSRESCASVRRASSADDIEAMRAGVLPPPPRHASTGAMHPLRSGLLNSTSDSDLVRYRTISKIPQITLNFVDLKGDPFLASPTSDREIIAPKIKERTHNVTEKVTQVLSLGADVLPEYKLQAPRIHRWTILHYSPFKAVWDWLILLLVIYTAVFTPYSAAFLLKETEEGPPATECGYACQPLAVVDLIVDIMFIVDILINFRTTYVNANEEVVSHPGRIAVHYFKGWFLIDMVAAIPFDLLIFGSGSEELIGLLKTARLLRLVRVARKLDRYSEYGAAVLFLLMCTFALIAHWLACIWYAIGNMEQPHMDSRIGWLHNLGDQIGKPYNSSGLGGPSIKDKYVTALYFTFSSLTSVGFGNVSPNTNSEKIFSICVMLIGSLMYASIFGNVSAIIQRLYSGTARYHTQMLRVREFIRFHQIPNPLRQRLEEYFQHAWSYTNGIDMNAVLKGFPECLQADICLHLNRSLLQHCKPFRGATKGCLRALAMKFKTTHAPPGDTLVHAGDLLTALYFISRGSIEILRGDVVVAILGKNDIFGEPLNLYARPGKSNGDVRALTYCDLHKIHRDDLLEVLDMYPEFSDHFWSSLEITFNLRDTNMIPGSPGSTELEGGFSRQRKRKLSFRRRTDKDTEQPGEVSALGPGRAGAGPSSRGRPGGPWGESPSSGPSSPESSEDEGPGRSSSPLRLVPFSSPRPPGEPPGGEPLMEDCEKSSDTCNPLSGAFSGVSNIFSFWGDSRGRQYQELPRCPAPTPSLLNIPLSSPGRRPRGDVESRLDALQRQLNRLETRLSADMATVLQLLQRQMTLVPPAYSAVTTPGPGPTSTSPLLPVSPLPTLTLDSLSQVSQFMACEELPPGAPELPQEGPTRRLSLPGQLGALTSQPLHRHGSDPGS

[7] = 11640 tested, ref 2 (supplement)
[8] = 473 tested, ref 4-6 (supplement)

Q: For `C[C@@H]1CN2c3c(cc4c(N5C(=O)OC[C@@H]5C)noc4c3F)CC3(C(=O)NC(=O)NC3=O)[C@H]2[C@H](C)O1` [ETX0914], which “MIC: S. aureus ARC516” value (S. aureus ARC516) is on record?
A: 0.125 µg/mL (≈ 0.256 µM)

Q: What about the MIC (S. aureus ARC516; Staphylococcus aureus, MSSA, read-out: Modal MIC) of the same compound?
A: 0.0625 µg/mL (≈ 0.128 µM)

Q: And the “MIC: S. aureus AP607004 (MRQR)” value [1]?
A: 0.5 µg/mL (≈ 1.03 µM)

Q: What about the “MIC: S. pneumoniae ARC2205 (ERQR)” value [2] of the same compound?
A: 0.125 µg/mL (≈ 0.256 µM)

Q: And the “MIC: N. gonorrhoeae ATCC49226” value (N. gonorrhoeae ATCC49226)?
A: 0.125 µg/mL (≈ 0.256 µM)

Q: What about the “Micronucleus NOEL” value (mouse lymphoma cells) of the same compound?
A: > 400 µM

Q: What about the hepatocyte CLint at 1 µM [3] of the same compound?
A: 7 µL/min/1e6 cells

Q: And the clearance ([4]; CD-1, plasma, mouse, ABT pre-dosing, read-out: CLp after pre-dosing with 1-aminobenzotriazole (ABT))?
A: 15 mL/min/kg

Q: What about the Ka ([4]; CD-1 mouse (female)) of the same compound?
A: 1.7 h⁻¹

Q: And the “lowering of CLp by ABT pre-dosing” value ([4]; mouse)?
A: ~5 fold

Q: What about the clearance ([4]; plasma, CD-1 mouse (female), IV 3 mg/kg, read-out: Clp (IV)) of the same compound?
A: 70 mL/min/kg

Q: What about the half-life ([4]; plasma, CD-1 mouse (female), IV 3 mg/kg, read-out: T1/2 (IV) (converted)) of the same compound?
A: 0.5 h

Q: What about the Vd ([4]; plasma, CD-1 mouse (female), IV 3 mg/kg, read-out: Vss (IV)) of the same compound?
A: 3.6 L/kg

Q: And the bioavailability ([4]; plasma, CD-1 mouse (female), IV 3 / PO 10 mg/kg)?
A: 46%

Q: And the Cmax ([4]; plasma, CD-1 mouse (female), PO 10 mg/kg)?
A: 1700 nM

Q: What about the half-life ([4]; plasma, CD-1 mouse (female), PO 10 mg/kg, read-out: T1/2 (PO) (converted)) of the same compound?
A: 1.6 h

Q: And the “PPB (%free)” value [5]?
A: 18.4±0.3 %free

Q: What about the “Salient Pathology Findings” value ([6]; 1 month rat (po), 500 mg/kg/day) of the same compound?
A: Reduced activity, pilo-erection, irregular respiration Seminal vesicle: secretory depletion, atrophy Epididymis: cellular debris (minimal) Spleen: increased congestion/haematopoiesis Cecum & rectum: mucosal hyperplasia

Q: What about the “Salient Pathology Findings” value ([6]; 1 month rat (po), 1000 mg/kg/day) of the same compound?
A: As above & testes tubular degeneration partially reversible 3 months post dosing

Q: And the AUC(0-t) ([6]; both sexes, Han Wistar, blood, oral, rat, 200 mg/kg, day 27, read-out: AUC24h at NOAEL)?
A: 1070 µg·h/mL

Q: What about the Cmax ([6]; both sexes, Han Wistar, blood, oral, rat, 200 mg/kg, day 27, read-out: Cmax at NOAEL) of the same compound?
A: 107 µg/mL

Q: And the NOAEL at 28 days ([6]; both sexes, Han Wistar, oral, rat, 28 days)?
A: 200 mg/kg

Q: What about the NOAEL at 28 days ([6]; both sexes, Han Wistar, 1 month rat (po)) of the same compound?
A: 200 mg/kg/day

Q: And the AUC ([6]; both sexes, Han Wistar, plasma, 1 month rat (po), 200 mg/kg/day)?
A: 1100 ± 130 µg·h/mL

Q: What about the Cmax ([6]; both sexes, Han Wistar, plasma, 1 month rat (po), 200 mg/kg/day, read-out: Cmax (±SD)) of the same compound?
A: 110 ± 30 µg/mL

Q: And the AUC ([6]; both sexes, Han Wistar, plasma, 1 month rat (po), 500 mg/kg/day)?
A: 2460 ± 470 µg·h/mL

Q: What about the Cmax ([6]; both sexes, Han Wistar, plasma, 1 month rat (po), 500 mg/kg/day, read-out: Cmax (±SD)) of the same compound?
A: 170 ± 30 µg/mL

Q: And the AUC ([6]; both sexes, Han Wistar, plasma, 1 month rat (po), 1000 mg/kg/day)?
A: 3820 ± 650 µg·h/mL

Q: And the Cmax ([6]; both sexes, Han Wistar, plasma, 1 month rat (po), 1000 mg/kg/day, read-out: Cmax (±SD))?
A: 260 ± 55 µg/mL

Q: And the “margin of fAUC at rat NOAEL to efficacious fAUC in mouse thigh model” value ([6]; both, Han Wistar, rat, plasma, oral, 200 mg/kg)?
A: 13 fold

Q: And the “haematology or platelet count at the NOAEL” value ([6]; rat)?
A: no significant changes in haematology or platelet count

Q: And the tolerated dose ([6]; rat, oral, 28 days)?
A: up to 1000 mg/kg/day

Q: What about the “re-ligation of inhibitor-induced cleaved DNA on removal of Mg2+” value (S. aureus DNA gyrase) of the same compound?
A: re-ligation remained blocked

Q: What about the “re-ligation of inhibitor-induced cleaved DNA on removal of Mg2+” value (S. aureus DNA gyrase; listed as AZD0914) of the same compound?
A: No ligation is observed

Q: And the MIC90 (Staphylococcus aureus; [7])?
A: 0.25^2 µg/ml

Q: And the “MIC Range” value (Staphylococcus aureus; [7])?
A: ≤ 0.008 to 0.5 µg/mL

Q: And the “MIC90, skin infection (S. aureus)” value (Staphylococcus aureus; Table 2)?
A: 0.25 µg/mL (≈ 0.513 µM)

Q: And the MIC90 (Neisseria gonorrhoeae; [8])?
A: 0.125^4-6 µg/ml

Q: And the “MIC Range” value (Neisseria gonorrhoeae; [8])?
A: 0.004 to 0.25 µg/mL

Q: What about the “MIC90, gonococcal infection (N. gonorrhoeae)” value (Neisseria gonorrhoeae; Table 2, first entry of the cell (ciprofloxacin: 250 mg UID line)) of the same compound?
A: 0.12 µg/mL (≈ 0.246 µM)

Q: What about the MIC90 (Streptococcus pyogenes) of the same compound?
A: 0.25^2 µg/ml

Q: What about the “MIC Range” value (Streptococcus pyogenes) of the same compound?
A: ≤ 0.015 to 0.5 µg/mL

Q: What about the MIC90 (Streptococcus pneumoniae) of the same compound?
A: 0.25^2 µg/ml

Q: And the “MIC Range” value (Streptococcus pneumoniae)?
A: ≤ 0.015 to 0.5 µg/mL

Q: What about the MIC90 (Moraxella catarrhalis) of the same compound?
A: 0.25^2 µg/ml

Q: And the “MIC Range” value (Moraxella catarrhalis)?
A: 0.015 to 0.5 µg/mL

Q: What about the MIC90 (Chlamydia trachomatis) of the same compound?
A: 0.25^3 µg/ml

Q: What about the “MIC Range” value (Chlamydia trachomatis) of the same compound?
A: 0.06 to 0.5 µg/mL

Q: And the frequency of resistance (S. aureus)?
A: < 1.1 × 10^−9

Q: What about the IC50 (hERG; hERG IC50, K^+ rectifying current/QT interval) of the same compound?
A: 316 µM

Q: And the “margin of ion channel IC50 relative to Cmax” value (hERG; ion channels including hERG, Cmax at highest 4000 mg Phase 1 dose)?
A: greater than 10 fold

Reference: PMC4501059, “Responding to the challenge of untreatable gonorrhea: ETX0914, a first-in-class agent with a distinct mechanism-of-action against bacterial Type II topoisomerases” (Scientific Reports, 2015)
